Reference: US11166922B2, “Method for treating hyperhidrosis with dexmecamylamine” (Atacama Therapeutics, Inc., priority 2014, dated 2021)

What was measured:
[1] = human, in vivo, po; cited from earlier work
[2] = system: subjects with overactive bladder; format: in vivo, human
Experimental: Dexmecamylamine is a use-dependent potent inhibitor of the α3 nicotinic receptor subtype (e.g., α3β2 and α3β4). Such receptors are expressed in the urothelium and regulate bladder smooth muscle contraction. (Beckel et al., Expression of functional nicotinic acetylcholine receptors in rat urinary bladder epithelial cells, Am. J. Physiol. Renal Physiol. 290:F103-110, 2006). A clinical study was performed to evaluate the safety, tolerability, and efficacy of dexmecamylamine (TC-5214) for the treatment of Overactive Bladder (OAB). The study included a three- or five-week screening period, followed by a 12-week treatment period during which patients received either one of three doses of dexmecamylamine or placebo twice daily, randomized in a ratio of 2:1:1:1 (placebo, low dose, mid dose, high dose), with a two-week follow-up period. A total of 768 subjects with overactive bladder were randomized into the double-blind treatment period of the study. On Jul. 28, 2014, Targacept announced top-line results from the Phase 2b clinical trial of TC-5214 as a treatment for overactive bladder (OAB). […] See also, PCT Application No. […], which published as WO 2013/142162 A1.
As noted hereinabove, a clinical study was performed to evaluate the safety, tolerability, and efficacy of dexmecamylamine (TC-5214) for the treatment of Overactive Bladder (OAB). The study included a three- or five-week screening period, followed by a 12-week treatment period during which patients received either one of three doses of dexmecamylamine or placebo twice daily, randomized in a ratio of 2:1:1:1 (placebo, low dose, mid dose, high dose), with a two-week follow-up period. A total of 768 subjects with overactive bladder were randomized into the double-blind treatment period of the study. […] See also, PCT Application No. PCT/US2013/030640, which published as WO 2013/142162 A1.

[3] = system: Major Depressive Disorder (MDD) subjects; format: in vivo, human
Experimental: More recently, dexmecamylamine was evaluated as adjunctive therapy in the treatment of major depressive disorder (MDD) in a large international Phase 3 depression program. […] More than 2400 subjects have received dexmecamylamine in double-blind or open-label studies.
No safety studies using dexmecamylamine have been performed in OAB. Phase 2 and Phase 3 clinical studies using dexmecamylamine in Major Depressive Disorder (MDD) have been conducted and completed. […] Briefly, in the fixed dose Phase 3 studies in MDD, at doses of 2 mg BID (the maximum doses to be studied in the OAB study), the most frequent treatment emergent adverse events that were reported more than 2% more commonly in the dexmecamylamine group compared to placebo group were: constipation (15.2% dexmecamylamine vs. 3.8% placebo): and dry mouth (7.0% dexmecamylamine vs. 1.3% placebo).

[4] = Excretion of dexmecamylamine in urine; conditions: in vivo
From the text: The exposure differential results in the ability of dexmecamylamine to target local nicotinic receptors in the urothelium that affect bladder contraction frequency while limiting systemic side effects. Consequently, the potential for dexmecamylamine to treat OAB through its action on nAChRs in the bladder urothelium warrants further investigation.

sympathetic activities = assay: Dose-responses for inhibition of sympathetic activities at low and high firing frequency (FIG. 2); conditions: 1 Hz versus 10 Hz firing frequency
Experimental: This is believed due, in part, to the fact that TC-5214 potency will increase with frequency due to its slow off-rate kinetics. See FIG. 2, which illustrates a 10-fold shift to the left with increasing frequency. The effective dose range, therefore, is believed to be between 0.1 and 1 mg; with a top dose at 2 mg once per day, since sympathetic activity decreases at night in primary hyperhidrosis. […] The potency of TC-5214 shifts to the left (red/triangle curve) thereby reducing sweating due to overactive sympathetic but remain too low to induce inhibition of the parasympathetic and associated side effects, including urinary retention and constipation.

[5] = pre-clinical; see U.S. Pat. No. 7,101,916; cited from earlier work

placebo corrected rate of constipation ([2]; human, in vivo, 12 weeks) [%] | rate of urinary tract infection (placebo corrected) ([2]; human, in vivo, 12 weeks) [%] | Structure (SMILES) | absorption from the gastrointestinal tract [1] | micturition frequency per 24 hours (co-primary endpoint) ([2]; high dose, twice daily, after 12 weeks of treatment, p=0.033) | episodes of urinary incontinence per 24 hours (co-primary endpoint) ([2]; high dose, twice daily, after 12 weeks of treatment, p=0.379) | safety and tolerability ([2]; human, in vivo) | efficacy in the treatment of depression ([3]; adjunctive therapy, Phase 3 depression program) | safety and tolerability ([3]; human, in vivo) | vital signs, blood or urine laboratory measurements, ECG conduction intervals, suicidality ([3]; human, in vivo) | excretion in the urine [4] | shift of potency (dose-response to the left) with increasing frequency (sympathetic activities) [fold] | safety profile versus mecamylamine and its R-isomer [5]
 |  | CNC1(C)C2CCC(C2)C1(C)C.Cl (racemic) [mecamylamine, N,2,3,3-tetramethylbicyclo[2.2.1]heptan-2-amine hydrochloride] | nearly complete absorption |  |  |  |  |  |  |  |  | 
15.1 | 5.9 | CNC1(C)[C@H]2CCC(C2)C1(C)C (stereo in doubt) [TC-5214, (S)-N,2,3,3-tetramethylnorbornan-2-amine] |  | statistically significant reduction | improvement that did not reach statistical significance | generally safe and well tolerated | failed to demonstrate efficacy | generally safe and well-tolerated | no noteworthy differences | excreted almost entirely unchanged in the urine | 10 | superior safety profile
